Reference: patent publication US9914730B2, “Azaquinazoline inhibitors of Atypical protein Kinase C” (Ignyta, Inc., priority 2012, dated 2018)

Molecular target: T1, full-length human PKCι (Homo sapiens, UniProt P41743)
T1 construct: Recombinant, full-length human PKCι expressed in Sf21 insect cells is also commercially available; purchased; host or cells: Sf21 insect cells
T1 sequence (P41743 1-596): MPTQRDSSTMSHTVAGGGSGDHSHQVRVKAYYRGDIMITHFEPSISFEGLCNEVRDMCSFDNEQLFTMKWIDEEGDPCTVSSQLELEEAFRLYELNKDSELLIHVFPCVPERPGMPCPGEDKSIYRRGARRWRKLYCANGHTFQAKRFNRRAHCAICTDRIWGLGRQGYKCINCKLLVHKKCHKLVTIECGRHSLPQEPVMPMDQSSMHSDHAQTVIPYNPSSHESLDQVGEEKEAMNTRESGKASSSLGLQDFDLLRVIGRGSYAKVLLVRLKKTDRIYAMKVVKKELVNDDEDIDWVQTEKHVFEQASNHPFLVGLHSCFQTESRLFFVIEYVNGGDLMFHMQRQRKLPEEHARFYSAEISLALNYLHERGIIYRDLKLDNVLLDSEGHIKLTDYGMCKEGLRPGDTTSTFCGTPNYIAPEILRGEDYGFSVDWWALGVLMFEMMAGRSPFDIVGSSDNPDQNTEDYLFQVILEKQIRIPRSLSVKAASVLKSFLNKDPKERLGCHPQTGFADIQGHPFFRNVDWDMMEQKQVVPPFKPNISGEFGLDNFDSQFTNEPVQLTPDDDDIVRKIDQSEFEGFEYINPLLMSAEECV
Experiment: PKCι IC50 IMAP assay, full-length PKCι at 150 μM ATP
Format: biochemical
Settings: read-out: IC50 in IMAP assay against full length PKCi at 150 μM ATP
Summary of the method: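 Phosphorylation of a 5FAM-tagged PKCε pseudopeptide-derived substrate (100 nM) by full-length recombinant human PKCι was monitored by IMAP fluorescence polarisation. ATP was held at 150 μM, five times its apparent KM, with 60 min room-temperature incubation.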

Row | SMILES | IC50
1 | NC(=O)CN[C@H](CNc1nc(-c2ccncc2)nc2cnccc12)Cc1ccccc1 [Example 82, 2-{[(2S)-1-phenyl-3-{[2-(pyridin-4-yl)pyrido[3,4-d]pyrimidin-4-yl]amino}propan-2-yl]amino}acetamide] | 1 to 10 µM
2 | CS(=O)(=O)N[C@H](CNc1nc(-c2ccncc2)nc2cnccc12)Cc1ccccc1 [Example 83, N-(1-phenyl-3-{[2-(pyridin-4-yl)pyrido[3,4-d]pyrimidin-4-yl]amino}propan-2-yl)methanesulfonamide] | 10 to 40 µM
3 | NC(=O)N[C@H](CNc1nc(-c2ccncc2)nc2cnccc12)Cc1ccccc1 [Example 84, (1-phenyl-3-{[2-(pyridin-4-yl)pyrido[3,4-d]pyrimidin-4-yl]amino}propan-2-yl)urea] | 10 to 40 µM
4 | CCNC(=O)N[C@H](CNc1nc(-c2ccncc2)nc2cnccc12)Cc1ccccc1 [Example 85, 3-ethyl-1-(1-phenyl-3-{[2-(pyridin-4-yl)pyrido[3,4-d]pyrimidin-4-yl]amino}propan-2-yl)urea] | 10 to 40 µM
5 | COc1cncc2nc(-c3ccncc3)nc(N3CCN4C(=O)OC[C@H]4C3)c12 [Example 86, (3aR)-5-[5-methoxy-2-(pyridin-4-yl)pyrido[3,4-d]pyrimidin-4-yl]-hexahydro-1H-[1,3]oxazolo[3,4-a]piperazin-1-one] | 1 to 10 µM
6 | COc1cncc2nc(-c3ccncc3)nc(N3CCN(CC#N)CC3)c12 [Example 87, 2-{4-[5-methoxy-2-(pyridin-4-yl)pyrido[3,4-d]pyrimidin-4-yl]piperazin-1-yl}acetonitrile] | 10 to 40 µM
7 | N[C@H](CNc1nc(-c2ccncc2)nc2c(-c3cccc(O)c3)nccc12)Cc1ccccc1 [Example 92, 3-(4-{[(2S)-2-amino-3-phenylpropyl]-amino}-2-(pyridin-4-yl)-pyrido[3,4-d]-pyrimidin-8-yl)phenol] | 1 to 10 µM
8 | N[C@H](CNc1nc(-c2ccncc2)nc2c(-c3ccc4occc4c3)nccc12)Cc1ccccc1 [Example 97, N-[(2S)-2-amino-3-phenylpropyl]-8-(1-benzofuran-5-yl)-2-(pyridin-4-yl)-pyrido[3,4-d]-pyrimidin-4-amine] | 0.1 to 1 µM
9 | Cn1cc(-c2nccc3c(NC[C@@H](N)Cc4ccccc4)nc(-c4ccncc4)nc23)cn1 [Example 98, N-[(2S)-2-amino-3-phenylpropyl]-8-(1-methyl-1H-pyrazol-4-yl)-2-(pyridin-4-yl)-pyrido[3,4-d]-pyrimidin-4-amine] | 1 to 10 µM
10 | N[C@H](CNc1nc(-c2ccncc2)nc2c(-c3cccnc3)nccc12)Cc1ccccc1 [Example 99, N-[(2S)-2-amino-3-phenylpropyl]-8-(pyridin-3-yl)-2-(pyridin-4-yl)pyrido[3,4-d]pyrimidin-4-amine] | 0.1 to 1 µM
11 | N[C@H](CNc1nc(-c2ccncc2)nc2c(-c3ccncc3)nccc12)Cc1ccccc1 [Example 100, N-[(2S)-2-amino-3-phenylpropyl]-2,8-bis(pyridin-4-yl)pyrido[3,4-d]pyrimidin-4-amine] | 0.1 to 1 µM
12 | CC(C)Cn1cc(-c2nccc3c(NC[C@@H](N)Cc4ccccc4)nc(-c4ccncc4)nc23)cn1 [Example 101, N-[(2S)-2-amino-3-phenylpropyl]-8-[1-(2-methyl-propyl)-1H-pyrazol-4-yl]-2-(pyridin-4-yl)-pyrido[3,4-d]-pyrimidin-4-amine] | 1 to 10 µM
13 | N[C@H](CNc1nc(-c2ccncc2)nc2c(-c3cccc(Cl)c3)nccc12)Cc1ccccc1 [Example 102, N-[(2S)-2-amino-3-phenylpropyl]-8-(3-chloro-phenyl)-2-(pyridin-4-yl)-pyrido[3,4-d]-pyrimidin-4-amine] | 0.1 to 1 µM
14 | N[C@H](CNc1nc(-c2ccncc2)nc2c(-c3ccc(Cl)cc3)nccc12)Cc1ccccc1 [Example 103, N-[(2S)-2-amino-3-phenylpropyl]-8-(4-chloro-phenyl)-2-(pyridin-4-yl)-pyrido[3,4-d]-pyrimidin-4-amine] | 0.1 to 1 µM
15 | Cn1nccc1-c1nccc2c(NC[C@@H](N)Cc3ccccc3)nc(-c3ccncc3)nc12 [Example 104, N-[(2S)-2-amino-3-phenylpropyl]-8-(1-methyl-1H-pyrazol-5-yl)-2-(pyridin-4-yl)-pyrido[3,4-d]-pyrimidin-4-amine] | 1 to 10 µM
16 | N[C@H](CNc1nc(-c2ccncc2)nc2c(-c3cccc(-c4cccc(Cl)c4)c3)nccc12)Cc1ccccc1 [Example 106, N-[(2S)-2-amino-3-phenylpropyl]-8-[3-(3-chloro-phenyl)-phenyl]-2-(pyridin-4-yl)pyrido[3,4-d]pyrimidin-4-amine] | 1 to 10 µM
17 | N[C@H](CNc1nc(-c2ccncc2)nc2c(-c3ccc(-c4ccc(Cl)cc4)cc3)nccc12)Cc1ccccc1 [Example 107, N-[(2S)-2-amino-3-phenylpropyl]-8-[4-(4-chloro-phenyl)-phenyl]-2-(pyridin-4-yl)pyrido[3,4-d]pyrimidin-4-amine] | 1 to 10 µM
18 | N[C@H](CNc1nc(-c2ccncc2)nc2c(-c3cncnc3)nccc12)Cc1ccccc1 [Example 108, N-[(2S)-2-amino-3-phenylpropyl]-2-(pyridin-4-yl)-8-(pyrimidin-5-yl)pyrido[3,4-d]pyrimidin-4-amine] | 0.1 to 1 µM
19 | Nc1cccc(-c2nccc3c(NC[C@@H](N)Cc4ccccc4)nc(-c4ccncc4)nc23)c1 [Example 109, N-[(2S)-2-amino-3-phenylpropyl]-8-(3-aminophenyl)-2-(pyridin-4-yl)pyrido[3,4-d]pyrimidin-4-amine] | 0.1 to 1 µM
20 | N[C@H](CNc1nc(-c2ccncc2)nc2c(-c3cccc4ccoc34)nccc12)Cc1ccccc1 [Example 110, N-[(2S)-2-amino-3-phenylpropyl]-8-(1-benzofuran-7-yl)-2-(pyridin-4-yl)pyrido[3,4-d]pyrimidin-4-amine] | 0.1 to 1 µM

Continued, values first:

Row | IC50 | SMILES
21 | 0.1 to 1 µM | CN[C@H](CNc1nc(-c2ccncc2)nc2cnccc12)Cc1ccccc1 [Example 80, methyl[(2S)-1-phenyl-3-{[2-(pyridin-4-yl)pyrido[3,4-d]pyrimidin-4-yl]amino}propan-2-yl]amine]
22 | 0.1 to 1 µM | COc1cncc2nc(-c3ccncc3)nc(N3CCN(C)[C@@H](Cc4ccccc4)C3)c12 [Example 81, (2S)-2-benzyl-4-[5-methoxy-2-(pyridin-4-yl)pyrido[3,4-d]pyrimidin-4-yl]-1-methylpiperazine; formic acid]
23 | 0.1 to 1 µM | CS(=O)(=O)Nc1cccc(-c2nccc3c(NC[C@@H](N)Cc4ccccc4)nc(-c4ccncc4)nc23)c1 [Example 88, N-{3-[4-((S)-2-Amino-3-phenyl-propylamino)-2-pyridin-4-yl-pyrido[3,4-d]pyrimidin-8-yl]-phenyl}-methanesulfonamide]
24 | < 0.1 µM | N[C@H](CNc1nc(-c2ccncc2)nc2c(-c3ccn[nH]3)nccc12)Cc1ccccc1 [Example 89, N-[(2S)-2-amino-3-phenylpropyl]-8-(1H-pyrazol-5-yl)-2-(pyridin-4-yl)pyrido[3,4-d]-pyrimidin-4-amine]
25 | 0.1 to 1 µM | N[C@H](CNc1nc(-c2ccncc2)nc2c(-c3ccccc3)nccc12)Cc1ccccc1 [Example 90, N-[(2S)-2-amino-3-phenylpropyl]-8-phenyl-2-(pyridin-4-yl)pyrido[3,4-d]-pyrimidin-4-amine]
26 | 0.1 to 1 µM | N[C@H](CNc1nc(-c2ccncc2)nc2c(-c3ccc(O)cc3)nccc12)Cc1ccccc1 [Example 91, 4-(4-{[(2S)-2-amino-3-phenylpropyl]-amino}-2-(pyridin-4-yl)pyrido[3,4-d]-pyrimidin-8-yl)phenol]
27 | 0.1 to 1 µM | COc1ccccc1-c1nccc2c(NC[C@@H](N)Cc3ccccc3)nc(-c3ccncc3)nc12 [Example 93, N-[(2S)-2-amino-3-phenylpropyl]-8-(2-methoxy-phenyl)-2-(pyridin-4-yl)-pyrido[3,4-d]-pyrimidin-4-amine]
28 | 0.1 to 1 µM | COc1cccc(-c2nccc3c(NC[C@@H](N)Cc4ccccc4)nc(-c4ccncc4)nc23)c1 [Example 94, N-[(2S)-2-amino-3-phenylpropyl]-8-(3-methoxy-phenyl)-2-(pyridin-4-yl)-pyrido[3,4-d]-pyrimidin-4-amine]
29 | 0.1 to 1 µM | COc1ccc(-c2nccc3c(NC[C@@H](N)Cc4ccccc4)nc(-c4ccncc4)nc23)cc1 [Example 95, N-[(2S)-2-amino-3-phenylpropyl]-8-(4-methoxy-phenyl)-2-(pyridin-4-yl)-pyrido[3,4-d]-pyrimidin-4-amine]
30 | 0.1 to 1 µM | N[C@H](CNc1nc(-c2ccncc2)nc2c(-c3ccccc3Cl)nccc12)Cc1ccccc1 [Example 96, N-[(2S)-2-amino-3-phenylpropyl]-8-(2-chlorophenyl)-2-(pyridin-4-yl)pyrido[3,4-d]pyrimidin-4-amine]
31 | < 0.1 µM | N[C@H](CNc1nc(-c2ccncc2)nc2c(-c3ccccc3O)nccc12)Cc1ccccc1 [Example 105, 2-(4-{[(2S)-2-amino-3-phenylpropyl]-amino}-2-(pyridin-4-yl)-pyrido[3,4-d]-pyrimidin-8-yl)phenol]
